# Results from article PMC7489537, “Ser-653-Asn substitution in the acetohydroxyacid synthase gene confers resistance in weedy rice to imidazolinone herbicides in Malaysia” (PLoS ONE, 2020).
# Where a chain is given by its changes, count along the chain named. pIC50: −log10 of the molar value.
# How the values were obtained:
# [1] = target: T1, AHAS (acetohydroxyacid synthase), weedy rice (Oryza sativa, UniProt Q6K2E8, S627N/V643M); experiment: AHAS inhibition assay, colorimetric acetoin at […] nm; format: biochemical; conditions: susceptible (S) population; partially purified leaf extract; 60 min incubation; read-out: I50
# T1 construct: gene ALS1; native enzyme, partially purified leaf extract; Pro93 and Met669 (Arabidopsis numbering); resistant weedy rice allele (S653N) deposited as GenBank MN268688
# T1 sequence (Q6K2E8 44-644 S627N/V643M): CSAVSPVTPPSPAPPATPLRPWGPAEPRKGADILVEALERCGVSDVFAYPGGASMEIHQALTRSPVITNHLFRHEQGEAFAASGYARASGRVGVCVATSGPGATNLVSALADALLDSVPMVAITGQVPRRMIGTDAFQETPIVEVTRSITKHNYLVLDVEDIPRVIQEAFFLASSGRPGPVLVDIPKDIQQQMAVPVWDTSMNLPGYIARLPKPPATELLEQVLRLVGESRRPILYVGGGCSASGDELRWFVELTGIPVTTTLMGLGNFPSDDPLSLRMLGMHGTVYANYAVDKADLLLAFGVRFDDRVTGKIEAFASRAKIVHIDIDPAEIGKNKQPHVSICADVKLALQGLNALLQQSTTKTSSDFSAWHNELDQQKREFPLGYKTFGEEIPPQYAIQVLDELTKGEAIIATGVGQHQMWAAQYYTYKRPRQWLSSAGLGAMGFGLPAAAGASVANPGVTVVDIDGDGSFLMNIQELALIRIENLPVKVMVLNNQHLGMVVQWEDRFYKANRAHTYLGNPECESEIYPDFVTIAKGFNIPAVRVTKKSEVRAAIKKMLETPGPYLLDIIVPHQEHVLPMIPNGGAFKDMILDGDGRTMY
# [2] = target: T2, AHAS (acetohydroxyacid synthase), MR219 (Oryza sativa, UniProt Q6K2E8, P67T); experiment: as above; format: biochemical; conditions: cultivar MR219; partially purified leaf extract; 60 min incubation; read-out: I50
# T2 construct: gene ALS1; native enzyme, partially purified leaf extract; natural Thr93, Ser653, Val669 (Arabidopsis numbering)
# T2 sequence (Q6K2E8 44-644 P67T): T1 sequence (Q6K2E8 44-644 S627N/V643M) with P24T, N584S, M600V
SMILES,pIC50 [1],pIC50 [2]
Cc1cnc(C2=NC(=O)C(C)(C(C)C)N2)c(C(=O)O)c1 (stereo not shown) [imazapic],8.92,8.77
CC(C)C1(C)N=C(c2ncccc2C(=O)O)NC1=O (stereo not shown) [imazapyr],8.60,8.77
